Assay results reported in patent US12636378B2, “Targeted antigen delivery system and uses thereof” (SRI International, priority 2020, dated 2026).
Entries after “also recorded” stand apart in the source; their conditions may differ. Where two headings read alike, the source gives them in different places. No end group written: not given here.

Columns and labels:
[1] = Physicochemical properties of peptides (hydrophobicity, solubility, stability)
[2] = HLA A*02:01 patients; cited from earlier work
[3] = tested on: three human NSCLC cell lines; experiment: Quantitative flow cytometry uptake assay, NSCLC cell lines; type: cell-based
Experimental: Uptake is represented as an average number of peptides per cell. Error bars are smaller than the symbol for some points.
(§1) A quantitative flow cytometry assay was performed that measures the average number of molecules of peptide internalized per cell. […] The number of molecules internalized ranges from 1×10^5 molecules/cell for H358 cells to 8×10^5 for H1993 cells, corresponding to intracellular concentrations of 100-800 nM. The rate of uptake at 6 hours is not saturated and it appears that peptide continues to enter the cell past this time (FIG. 5 and FIG. 6). This indicates either high receptor numbers which have not yet saturated or rapid recycling of the receptor that allows for continual delivery, reaching high intracellular concentrations of the peptide.

H358 cells = experiment: Quantitative flow cytometry uptake assay, H358; type: cell-based, human
Experimental: H358 cell line data has been not included in FIG. 6 for clarity due to differences in the Y axis.
as §1

[4] = tested on: 4T1 cells implanted in mammary fat pads; conditions: nIR dye-labelled peptide
LLC1 tumors = conditions: 15 μg I.V., Alexa Fluor 750 conjugate, 72 hours
Experimental: The LLC1 tumors were grown until palpable (≈500 mm^3) at which point mice were treated I.V. with 15 μg of SRI_MGS5_V2 conjugated to Alexa Fluor 750. Images were taken daily for 72 hours, after which the animal was sacrificed, and its organs were assessed to determine localization of the targeting peptide.

[5] = tested on: normal control human lung epithelial cell line (HBEC); experiment: Binding to normal lung epithelial cells; type: cell-based
Description: (§2) The final optimized SRI_MGS5_V1 peptide, SRI_MGS5_V2, has the following characteristics.

[6] = tested on: breast cancer lines (MCF-7, MDA-MB-231and 4T1); experiment: Binding to breast cancer lines; type: cell-based
Description: as §2

[7] = tested on: panel of cancer cell lines; experiment: Binding in a panel of cancer cell lines; type: cell-based
Pan02 cells = conditions: fluorescent dye-labelled peptide
H1993 cells [8] = experiment: Co-culture assay, liposome treated H1993 cells with HLA-A2 positive PBMCs, cytokine ELISA; type: cell-based, human
Experimental: TALL treated H1993 cells were co-cultured with HLA-A2 positive PBMCs and culture supernatants were analyzed for TNF-α secretion. Concentration of all liposomes used in this assay corresponded to ≈4.5 mg/ml of phosphatidyl choline. Free H250 peptide control is incubated at 5 μmol/L.
TALL treated H1993 cells were co-cultured with HLA-A2 positive PBMCs and culture supernatants were analyzed for IFNγ secretion. Concentration of all liposomes used in this assay corresponded to ≈4.5 mg/ml of phosphatidyl choline. Free H250 peptide control is incubated at 5 μmol/L.
(§3) The liposomes were loaded with the H250 antigenic peptide and SRI_MGS5_V2 or SRI_MGS5_V1 was conjugated to the external face of the liposome via maleimide chemistry. The liposomes were incubated with H1993 cells followed by co-culture with peripheral blood mononuclear cells (PBMCs) from an anonymous donor that is haplotype HLA A2+ and vaccinated against measles. […] More experiments testing different liposome variants and assessing TNF-α and INF-γ in co-culture were performed. […] The same experiments were completed using mouse LLC1 cells as the antigen presenting cells and lymph node lymphocytes (LNL) from C57B1/6 mice that had been vaccinated against HA.

[9] = tested on: glioma cell line (GL-261); experiment: Flow cytometry binding and internalization in GL261 cells; type: cell-based, mouse
Description: as §2

[10] = tested on: subcutaneous H1993 NSCLC tumor; experiment: NIR imaging of dye-labeled peptides in mice with subcutaneous H1993 tumor; type: in vivo; conditions: for tumor accumulation / tumor targeting: Alexa Fluor 750 conjugate, tail vein injection
Experimental: The peptides were conjugated to Alexa Fluor 750 dye and […] injected intravenously via the tail vein into mice bearing a subcutaneous H1993 NSCLC tumor on their right flank.
SRI_MGS5_V2 and parental SRI_MGS5_V1 were labeled with the near-infrared dye Alexa Fluor 750 for imaging. […] For example, SRI_MGS5_V2 has 3-fold lower signal in the lung compared to SRI_MGS5_V1. […] Importantly, the corresponding nonacetylated versions of each peptide were evaluated as well.

LLC1 cells [11] = experiment: Co-culture assay, liposome treated LLC1 cells, cytokine ELISA; type: cell-based, murine
Experimental: TALL treated LLC1 cells were co-cultured with HLA-A2 positive PBMCs and culture supernatants were analyzed for TNF-α a secretion. […] Concentration of all liposomes used in this assay corresponded to ≈4.5 mg/ml of phosphatidyl choline. Free H250 peptide control is incubated at 5 μmol/L.
TALL treated LLC1 cells were co-cultured with HLA-A2 positive PBMCs and culture supernatants were analyzed for IFN-γ secretion. […] Concentration of all liposomes used in this assay corresponded to ≈4.5 mg/ml of phosphatidyl choline. Free H250 peptide control is incubated at 5 μmol/L.
as §3

4T1 cells = experiment: Quantitative flow cytometry binding and internalization in 4T1 cells; type: cell-based, mouse
H1993 cells [12] = tested on: H1993 cells
NSCLC lines = experiment: Flow cytometry binding to NSCLC lines; type: cell-based, human
Description: as §2

[13] = tested on: Multiple Different Cancer Types; experiment: Functional presentation of antigenic peptide in multiple cancer types; type: cell-based
Description: Treatment groups: A—MGS5_V2 Targeted Liposome Loaded with H250 Antigen; B—Positive Control: Cells Pulsed with Free H250 Antigen; C—No MGS on Liposome Loaded with H250 Antigen; D—Blank Liposomes—no H250 Antigen.

[14] = tested on: GL261 cells implanted in the brain; conditions: fluorescent dye-labelled peptide
H1993 cells [15] = experiment: Quantitative flow cytometry uptake assay, H1993; type: cell-based, human
Experimental: as §1

[16] = tested on: pancreatic cancer line (Pan02); experiment: Flow cytometry binding and internalization in Pan02 cells; type: cell-based, mouse
Description: as §2

LLC1 cells [17] = experiment: Confocal microscopy, autophagic vesicles in LLC1 cells; type: cell-based, mouse
Description: (§4) Therefore, accumulation in autophagosomes is a necessary component for success of this immunotherapy.

H1993 NSCLC cells = experiment: Confocal microscopy, co-localization of peptide with autophagic vesicles; type: cell-based, human; conditions: 100 nM
Experimental: FIGS. 7A-7C show an example of co-localization of SRI_MGS5_V2 peptides with autophagic vesicles (A) H1993 cells treated with 100 nM of SRI_MGS5_V1 peptide (panel A) and optimized SRI_MGS_V2 (panels B and C) conjugated with Alexa Fluor 647 (Red). Autophagosomes are stained with LC3B antibody (Green). The regions corresponding to co-localization of the peptide and autophagic vesicles are shown in yellow.
as §4

[18] = tested on: normal control human lung epithelial cell line (HBEC); conditions: cited from earlier work
cancer cells = conditions: cited from earlier work

With SLSAYIIRV [H3L, SLSAYIIRV] the biophysical properties [1] was “hydrophobic, difficult to purify, and unstable”.
In the case of “SMYRVFEVGV [H250, measles virus hemagglutinin peptide, HLA class I (A*02:01) restricted]”, the immunogenic response [2] is listed as “strong CD8 specific IFNγ response; also recorded: strong CD8 specific IFNy response”.
For ILPGQDLQYV [H516], the immunogenic response [2] is given as “highly immunogenic”.
For SLWGSLLML [C166, SLWGSLLML], the biophysical properties [1] was “hydrophobic, difficult to purify, and unstable”.
With “(CH3CO-LQWRRNFGVWARYRL-PEG11)2K-X (not fully specified; N-acetyl, PEG11, dimerized on lysine core, tag X; targeting sequence) [SRI_MGS5_V2]” the “uptake at low temperature” value ([3]; 4° C.) was “greatly reduced”, the rate of uptake ([3]; at 6 hours, 100 nM dye-labeled peptide) was “not saturated” and the intracellular concentrations ([3]; corresponding to molecules/cell from H358 to H1993) was 100 to 800 nM. The internalization ([3]; three human NSCLC cell lines) was “is internalized”, the “number of molecules internalized” value (H358 cells) was 1×10^5 molecules/cell and the “tumor localization, orthotopic 4T1” value [4] was “homes to tumors”. For the same substance, the “tumor localization, orthotopic 4T1” value ([4]; listed as MGS5_V2) was “localized within the tumors”, the “localization in LLC1 tumor” value (LLC1 tumors; listed as SRI_MGS2_V2) was “successfully localized” and the “localization in LLC1 tumor” value (LLC1 tumors; listed as SRI_MGS5_V5) was “homes to LLC1 tumors”. The “discrimination between NSCLC cancer and normal cells in the lung” value [5] was “high discriminating power”, the “binding to breast cancer lines” value [6] was “shown to bind; also recorded: binds” and the “binding in a panel of cancer cell lines” value [7] was “improved binding”. The “tumor localization, orthotopic Pan02” value (Pan02 cells) was “homes to tumors”, the “tumor localization, orthotopic Pan02” value (Pan02 cells; listed as MGS5_V2) was “localized in the tumor” and the “presentation of encapsulated immunogenic peptide in HLA class I molecules (IFNγ ELISA)” value (H1993 cells [8]) was “facilitates presentation”. For the same substance, the “presentation of encapsulated immunogenic peptide in HLA class I molecules (TNF-α ELISA)” value (H1993 cells [8]) was “facilitates presentation”, the “binding (and internalization) in GL261 cells” value [9] was “shown to bind; also recorded: binds” and the “binding (and internalization) in GL261 cells” value ([9]; listed as MGS5_V2) was “concentration dependent binding and internalization”. The “tumor accumulation / tumor targeting” value [10] was “accumulate specifically”, the “non-specific accumulation in the lung and other organs vs acetylated SRI_MGS5_V1” value ([10]; ex vivo imaging at 72 H) was “reduced non-specific accumulation” and the “less signal in the kidneys compared to SRI_MGS5_V1” value ([10]; ex vivo, 72 H) was 2.2 fold. For the same substance, the “extent of tumor uptake, V1 versus V2” value ([10]; mouse, in vivo) was “roughly the same degree”, the “less signal in the liver compared to SRI_MGS5_V1” value ([10]; mouse, in vivo) was 1.6 fold and the “lower signal in the lung compared to SRI_MGS5_V1” value ([10]; mouse, in vivo) was 3 fold. The “time to localization at the tumor site” value ([10]; mouse, in vivo) was at most 24 h, the tumor signal maintained ([10]; mouse, in vivo) was 72 h and the “presentation of encapsulated immunogenic peptide in HLA class I molecules (IFN-γ ELISA)” value (LLC1 cells [11]) was “facilitates presentation”. For the same substance, the “presentation of encapsulated immunogenic peptide in HLA class I molecules (TNF-α ELISA)” value (LLC1 cells [11]) was “facilitates presentation”, the “binding and internalization in 4T1 cells” value (4T1 cells) was “concentration dependent binding and internalization” and the cell viability (H1993 cells [12]; 72 hours, concentrations as high as 250 μM) was “No significant loss of viability”. For the same substance, the toxicity of uptake (H1993 cells [12]; H1993 cells) was “not toxic”, the “binding to NSCLC lines compared to parental SRI_MGS5_V1” value (NSCLC lines) was “greater binding affinity; also recorded: increased binding” and the “functional presentation of antigenic peptide” value [13] was “Mediates Functional Presentation”. For the same substance, the “tumor localization, orthotopic GL261” value [14] was “homes to tumors”, the “tumor localization, orthotopic GL261” value ([14]; listed as MGS5_V2) was “targets GL261 cells” and the “number of molecules internalized” value (H1993 cells [15]) was 8×10^5 molecules/cell. The “binding (and internalization) in Pan02 cells” value [16] was “shown to bind; also recorded: binds”, the “binding (and internalization) in Pan02 cells” value ([16]; listed as MGS5_V2) was “concentration dependent binding and internalization” and the “accumulation in autophagic vesicles” value (LLC1 cells [17]) was “Comparable results”. The “accumulation in autophagic vesicles compared to parental MGS5_V1” value (H1993 NSCLC cells) was “much greater extent”.
With “SRI_MGS5_V1: parental tumor-targeting peptide, dimer comprising LQWRRDDNVHNFGVWARYRL (SEQ ID NO:2) (also: dimer) [reference compound]” the “off-tumor signal in vivo” value ([10]; 24 H) was “significant signal along the dorsal side”, the “tumor accumulation / tumor targeting” value [10] was “accumulate specifically” and the “extent of tumor uptake, V1 versus V2” value ([10]; mouse, in vivo) was “roughly the same degree”. For the same substance, the “time to localization at the tumor site” value ([10]; mouse, in vivo) was at most 24 h, the tumor signal maintained ([10]; mouse, in vivo) was 72 h and the “binding to normal human bronchial epithelial cells” value [18] was “limited binding”. For the same substance, the “accumulation in cancer cells” value (cancer cells) was “selectively accumulate”.
